System: MV-4-11 cells
Assay: Gene expression microarray analysis (Affymetrix PrimeView) and GSEA
Type: cell-based, human
Parameters: RFU PODN (11730768_x_at) / Fold change /veh PODN (11730768_x_at) / RFU LINC00158 (11744669_a_at) / Fold change /veh LINC00158 (11744669_a_at) / RFU DUSP10 (11751237_a_at) / Fold change /veh DUSP10 (11751237_a_at) / RFU ID3 (11757404_x_at) / Fold change /veh ID3 (11757404_x_at) / RFU PLEKHG5 (11737974_s_at) / Fold change /veh PLEKHG5 (11737974_s_at) / RFU LRRC4B (11730491_at) / Fold change /veh LRRC4B (11730491_at) / RFU GIMAP4 (11747438_a_at) / Fold change /veh GIMAP4 (11747438_a_at) / RFU KRT8 (11758183_x_at) / Fold change /veh KRT8 (11758183_x_at) / RFU CNN1 (11734310_a_at) / Fold change /veh CNN1 (11734310_a_at) / RFU VPS37D (11726825_at) / Fold change /veh VPS37D (11726825_at) / RFU C10orf10 (11716522_x_at) / Fold change /veh C10orf10 (11716522_x_at) / RFU KIR2DL2 /// KIR2DL4 /// KIR2DL5A /// KIR2DL5B /// KIR2DS1 /// KIR2DS2 /// KIR2DS3 /// KIR2DS4 /// KIR3DL3 /// KIR3DL3 /// KIR3DS1 (11738374_at) / Fold change /veh KIR2DL2 /// KIR2DL4 /// KIR2DL5A /// KIR2DL5B /// KIR2DS1 /// KIR2DS2 /// KIR2DS3 /// KIR2DS4 /// KIR3DL3 /// KIR3DL3 /// KIR3DS1 (11738374_at) / RFU C1QL1 (11718748_at) / Fold change /veh C1QL1 (11718748_at) / RFU TMPRSS4 (11747572_a_at) / Fold change /veh TMPRSS4 (11747572_a_at) / RFU HAMP (11756126_x_at) / Fold change /veh HAMP (11756126_x_at) / RFU RNFT2 (11725882_a_at) / Fold change /veh RNFT2 (11725882_a_at) / RFU NR4A2 (11747474_a_at) / Fold change /veh NR4A2 (11747474_a_at) / RFU ABCC12 (11746883_a_at) / Fold change /veh ABCC12 (11746883_a_at) / RFU TMEM136 (11760407_x_at) / Fold change /veh TMEM136 (11760407_x_at) / RFU CLDN22 /// WWC2 (11732394_at) / Fold change /veh CLDN22 /// WWC2 (11732394_at) / RFU HLA-DPB1 (11760878_x_at) / Fold change /veh HLA-DPB1 (11760878_x_at) / RFU SPINT1 (11716480_a_at) / Fold change /veh SPINT1 (11716480_a_at) / RFU GAP43 (11754022_s_at) / Fold change /veh GAP43 (11754022_s_at) / RFU A4GNT (11735810_at) / Fold change /veh A4GNT (11735810_at) / RFU PRB3 (11715151_x_at) / Fold change /veh PRB3 (11715151_x_at) / RFU TUBB4B (11761932_at) / Fold change /veh TUBB4B (11761932_at) / RFU CAPN14 (11732068_a_at) / Fold change /veh CAPN14 (11732068_a_at) / RFU TMCC2 (11721928_a_at) / Fold change /veh TMCC2 (11721928_a_at) / RFU IRGQ (11745062_a_at) / Fold change /veh IRGQ (11745062_a_at) / RFU FAM174B (11720279_a_at) / Fold change /veh FAM174B (11720279_a_at) / RFU TMPRSS4 (11748680_a_at) / Fold change /veh TMPRSS4 (11748680_a_at) / RFU FAM212B (11763350_a_at) / Fold change /veh FAM212B (11763350_a_at) / RFU PLEKHG5 (11743358_a_at) / Fold change /veh PLEKHG5 (11743358_a_at) / RFU ZSCAN30 (11745921_a_at) / Fold change /veh ZSCAN30 (11745921_a_at) / RFU CMKLR1 (11741424_a_at) / Fold change /veh CMKLR1 (11741424_a_at) / RFU LOC101060620 /// MAPK8IP1 (11723275_at) / Fold change /veh LOC101060620 /// MAPK8IP1 (11723275_at) / RFU SPTSSB (11747773_x_at) / Fold change /veh SPTSSB (11747773_x_at) / RFU PRSS12 (11739890_at) / Fold change /veh PRSS12 (11739890_at) / RFU BIN1 (11741810_x_at) / Fold change /veh BIN1 (11741810_x_at) / RFU WNT11 (11732464_a_at) / Fold change /veh WNT11 (11732464_a_at) / RFU C10orf10 (11716521_a_at) / Fold change /veh C10orf10 (11716521_a_at) / RFU C5orf56 (11738089_at) / Fold change /veh C5orf56 (11738089_at) / RFU CYB561 (11721691_x_at) / Fold change /veh CYB561 (11721691_x_at) / RFU ANKRD19P (11752326_a_at) / Fold change /veh ANKRD19P (11752326_a_at) / RFU OR2T12 /// OR2T33 /// OR2T8 (11738714_s_at) / Fold change /veh OR2T12 /// OR2T33 /// OR2T8 (11738714_s_at) / RFU VCAN (11748164_a_at) / Fold change /veh VCAN (11748164_a_at) / RFU JSRP1 (11732532_at) / Fold change /veh JSRP1 (11732532_at) / RFU KRTAP10-11 (11738290_x_at) / Fold change /veh KRTAP10-11 (11738290_x_at) / RFU MYO3A (11730013_a_at) / Fold change /veh MYO3A (11730013_a_at) / RFU EBF3 (11725865_a_at) / Fold change /veh EBF3 (11725865_a_at) / RFU CAMK2N1 (11719241_x_at) / Fold change /veh CAMK2N1 (11719241_x_at) / RFU C5orf56 (11738088_a_at) / Fold change /veh C5orf56 (11738088_a_at) / RFU OLFML3 (11715873_a_at) / Fold change /veh OLFML3 (11715873_a_at) / RFU LOC100653217 /// NTM (11731650_a_at) / Fold change /veh LOC100653217 /// NTM (11731650_a_at) / RFU MAPK11 (11762145_a_at) / Fold change /veh MAPK11 (11762145_a_at) / RFU FIZ1 (11724087_x_at) / Fold change /veh FIZ1 (11724087_x_at) / RFU OASL (11726364_x_at) / Fold change /veh OASL (11726364_x_at) / RFU SOX15 (11748057_x_at) / Fold change /veh SOX15 (11748057_x_at) / RFU CD79A (11719716_a_at) / Fold change /veh CD79A (11719716_a_at) / RFU HIST1H1D (11736915_at) / Fold change /veh HIST1H1D (11736915_at) / RFU CASKIN2 (11723855_a_at) / Fold change /veh CASKIN2 (11723855_a_at) / RFU LOC730098 (11760151_x_at) / Fold change /veh LOC730098 (11760151_x_at) / RFU OR4N2 (11742367_at) / Fold change /veh OR4N2 (11742367_at) / RFU PRRT2 (11749266_a_at) / Fold change /veh PRRT2 (11749266_a_at) / RFU SNX32 (11753110_a_at) / Fold change /veh SNX32 (11753110_a_at) / RFU CDHR5 (11726645_a_at) / Fold change /veh CDHR5 (11726645_a_at) / RFU RCAN1 (11760418_a_at) / Fold change /veh RCAN1 (11760418_a_at) / RFU FAM167A (11723789_a_at) / Fold change /veh FAM167A (11723789_a_at) / RFU FAM26E (11764081_at) / Fold change /veh FAM26E (11764081_at) / RFU ISYNA1 (11749810_s_at) / Fold change /veh ISYNA1 (11749810_s_at) / RFU ACY1 (11761880_at) / Fold change /veh ACY1 (11761880_at) / RFU 11764098_at / Fold change /veh 11764098_at / RFU SAMD14 (11745864_x_at) / Fold change /veh SAMD14 (11745864_x_at) / RFU NPB (11741838_a_at) / Fold change /veh NPB (11741838_a_at) / RFU TMPRSS6 (11731388_a_at) / Fold change /veh TMPRSS6 (11731388_a_at) / RFU KRTAP10-2 (11738614_at) / Fold change /veh KRTAP10-2 (11738614_at) / RFU ARHGAP8 /// PRR5-ARHGAP8 (11727945_x_at) / Fold change /veh ARHGAP8 /// PRR5-ARHGAP8 (11727945_x_at) / RFU KRTAP5-7 /// NADSYN1 (11734609_at) / Fold change /veh KRTAP5-7 /// NADSYN1 (11734609_at) / RFU RASL12 (11751679_a_at) / Fold change /veh RASL12 (11751679_a_at) / RFU CDKN2B (11736163_a_at) / Fold change /veh CDKN2B (11736163_a_at) / RFU PRF1 (11729649_at) / Fold change /veh PRF1 (11729649_at) / RFU, ZNF638 /// ZNF638-IT1 / Fold change vs veh, ZNF638 /// ZNF638-IT1 / RFU, PANK3 / Fold change vs veh, PANK3 / RFU, SH3YL1 / Fold change vs veh, SH3YL1 / RFU, ZEB2 / Fold change vs veh, ZEB2 / RFU, NRIP1 / Fold change vs veh, NRIP1 / RFU, PTTG1IP / Fold change vs veh, PTTG1IP / RFU, CAPN2 / Fold change vs veh, CAPN2 / RFU, MED14 / Fold change vs veh, MED14 / RFU, SNORA58 / Fold change vs veh, SNORA58 / RFU, C1orf63 / Fold change vs veh, C1orf63 / RFU, LRRFIP1 / Fold change vs veh, LRRFIP1 / RFU, NDUFAF7 / Fold change vs veh, NDUFAF7 / RFU, SLC12A2 / Fold change vs veh, SLC12A2 / RFU, IBTK / Fold change vs veh, IBTK / RFU, ESF1 / Fold change vs veh, ESF1 / Fold change vs veh, TMEM50B / RFU, TAOK1 / Fold change vs veh, TAOK1 / RFU, ACBD3 / Fold change vs veh, ACBD3 / RFU, TMA16 / Fold change vs veh, TMA16 / RFU, RWDD3 / Fold change vs veh, RWDD3 / RFU, BCAT1 / Fold change vs veh, BCAT1 / RFU, EDEM3 / Fold change vs veh, EDEM3 / RFU, TMEM33 / Fold change vs veh, TMEM33 / RFU, WDR75 / Fold change vs veh, WDR75 / RFU, AHCTF1 / Fold change vs veh, AHCTF1 / RFU, TFRC / Fold change vs veh, TFRC / RFU, ZDHHC17 / Fold change vs veh, ZDHHC17 / RFU, NOM1 / Fold change vs veh, NOM1 / RFU, ARL8B / Fold change vs veh, ARL8B / RFU, ZBTB11 / Fold change vs veh, ZBTB11 / RFU, TAMM41 / Fold change vs veh, TAMM41 / RFU, KIAA1704 /// LOC100996395 / Fold change vs veh, KIAA1704 /// LOC100996395 / RFU, ING1 / Fold change vs veh, ING1 / RFU, TRMT61B / Fold change vs veh, TRMT61B / RFU, FUBP3 / Fold change vs veh, FUBP3 / RFU, TP53 / Fold change vs veh, TP53 / RFU, TNKS2 / Fold change vs veh, TNKS2 / RFU, ZFP14 / Fold change vs veh, ZFP14 / RFU, ACTR2 / Fold change vs veh, ACTR2 / RFU, PPP3R1 / Fold change vs veh, PPP3R1 / RFU, PIK3R1 / Fold change vs veh, PIK3R1 / RFU, HNRNPA1 / Fold change vs veh, HNRNPA1 / RFU, RNF170 / Fold change vs veh, RNF170 / RFU, ZNF28 / Fold change vs veh, ZNF28 / RFU, RNGTT / Fold change vs veh, RNGTT / RFU, OGT / Fold change vs veh, OGT / RFU, BRD1 / Fold change vs veh, BRD1 / RFU, MARS / Fold change vs veh, MARS / RFU, ZNF655 / Fold change vs veh, ZNF655 / RFU, FAHD1 / Fold change vs veh, FAHD1 / RFU, BDP1 / Fold change vs veh, BDP1 / RFU, LRRCC1 / Fold change vs veh, LRRCC1 / RFU, ARID1A / Fold change vs veh, ARID1A / RFU, ZNF146 / Fold change vs veh, ZNF146 / RFU, ZNF330 / Fold change vs veh, ZNF330 / RFU, GPN3 / Fold change vs veh, GPN3 / RFU, C9orf123 / Fold change vs veh, C9orf123 / RFU, N4BP2L2 / Fold change vs veh, N4BP2L2 / RFU, ARFIP1 / Fold change vs veh, ARFIP1 / RFU, FAM179B / Fold change vs veh, FAM179B / RFU, BCL10 / Fold change vs veh, BCL10 / RFU, UHRF1BP1L / Fold change vs veh, UHRF1BP1L / RFU, BET1 / Fold change vs veh, BET1 / RFU, CNOT2 / Fold change vs veh, CNOT2 / RFU, ZNF268 / Fold change vs veh, ZNF268 / Fold change vs veh, ZNF507 / RFU, DGCR2 / Fold change vs veh, DGCR2 / RFU, WDSUB1 / Fold change vs veh, WDSUB1 / Fold change vs veh, HSP90B1 /// MIR3652 / RFU, ADSS / Fold change vs veh, ADSS / RFU, GK / Fold change vs veh, GK / RFU, ZNF148 / Fold change vs veh, ZNF148 / RFU, TAF9 / Fold change vs veh, TAF9 / RFU, SLC1A5 / Fold change vs veh, SLC1A5 / RFU, SLMO2 / Fold change vs veh, SLMO2 / RFU, ABCC4 / Fold change vs veh, ABCC4 / RFU, LOC101060439 /// RAP1B / Fold change vs veh, LOC101060439 /// RAP1B / RFU, RFX7 / Fold change vs veh, RFX7 / RFU, GTPBP10 / Fold change vs veh, GTPBP10 / RFU, CNEP1R1 / Fold change vs veh, CNEP1R1 / RFU, BIVM-ERCC5 /// ERCC5 / Fold change vs veh, BIVM-ERCC5 /// ERCC5 / RFU, ILF3 / Fold change vs veh, ILF3 / RFU 11762660_at / Fold change /veh 11762660_at / RFU VCAN (11757783_s_at) / Fold change /veh VCAN (11757783_s_at) / RFU DDX43 (11728927_at) / Fold change /veh DDX43 (11728927_at) / RFU KRT8 (11758188_x_at) / Fold change /veh KRT8 (11758188_x_at) / RFU NKD1 (11759106_at) / Fold change /veh NKD1 (11759106_at) / RFU SRD5A1 (11742802_a_at) / Fold change /veh SRD5A1 (11742802_a_at) / RFU TPSAB1 /// TPSB2 (11721975_s_at) / Fold change /veh TPSAB1 /// TPSB2 (11721975_s_at) / RFU GSTM3 (11746129_a_at) / Fold change /veh GSTM3 (11746129_a_at) / RFU IL23R (11737362_x_at) / Fold change /veh IL23R (11737362_x_at) / RFU TMEM51 (11727254_a_at) / Fold change /veh TMEM51 (11727254_a_at) / RFU PIWIL2 (11732686_x_at) / Fold change /veh PIWIL2 (11732686_x_at) / RFU ORM1 (11744905_x_at) / Fold change /veh ORM1 (11744905_x_at) / RFU CCDC152 (11743942_at) / Fold change /veh CCDC152 (11743942_at) / RFU ECM1 (11717891_a_at) / Fold change /veh ECM1 (11717891_a_at) / RFU IL23R (11748794_a_at) / Fold change /veh IL23R (11748794_a_at) / RFU TNFAIP8L3 (11732012_x_at) / Fold change /veh TNFAIP8L3 (11732012_x_at) / RFU MBOAT4 (11741988_at) / Fold change /veh MBOAT4 (11741988_at) / RFU 11764193_at / Fold change /veh 11764193_at / RFU TMEM53 (11763286_at) / Fold change /veh TMEM53 (11763286_at) / RFU MAGEB2 (11727129_at) / Fold change /veh MAGEB2 (11727129_at) / RFU TMEM200A (11744735_a_at) / Fold change /veh TMEM200A (11744735_a_at) / RFU CCDC152 (11751479_a_at) / Fold change /veh CCDC152 (11751479_a_at) / RFU FAM211A (11726209_a_at) / Fold change /veh FAM211A (11726209_a_at) / RFU RGS16 (11746705_a_at) / Fold change /veh RGS16 (11746705_a_at) / RFU VCAN (11755009_s_at) / Fold change /veh VCAN (11755009_s_at) / RFU RHOB (11743442_s_at) / Fold change /veh RHOB (11743442_s_at) / RFU RGS16 (11720943_a_at) / Fold change /veh RGS16 (11720943_a_at) / RFU RGS16 (11720944_at) / Fold change /veh RGS16 (11720944_at) / RFU, VPS4B / Fold change vs veh, VPS4B / RFU, CREB1 / Fold change vs veh, CREB1 / RFU, DNAJC13 / Fold change vs veh, DNAJC13 / RFU, GNAQ / Fold change vs veh, GNAQ / RFU, CDK5R1 / Fold change vs veh, CDK5R1 / RFU, ZRANB3 / Fold change vs veh, ZRANB3 / RFU, CUL4A / Fold change vs veh, CUL4A / RFU, CCNY / Fold change vs veh, CCNY / RFU, UFL1 / Fold change vs veh, UFL1 / RFU, COG3 / Fold change vs veh, COG3 / RFU, DIAPH2 / Fold change vs veh, DIAPH2 / RFU, SKA2 / Fold change vs veh, SKA2 / RFU, AFF3 / Fold change vs veh, AFF3 / RFU, LMF1 / Fold change vs veh, LMF1 / RFU, IPO11 / Fold change vs veh, IPO11 / RFU, DFFB / Fold change vs veh, DFFB / RFU, FOXP1 / Fold change vs veh, FOXP1 / RFU, CARD8 / Fold change vs veh, CARD8 / RFU, STRN3 / Fold change vs veh, STRN3 / RFU, ADK / Fold change vs veh, ADK / RFU, RASSF2 / Fold change vs veh, RASSF2 / RFU, WIPF1 / Fold change vs veh, WIPF1 / RFU, LARP1B / Fold change vs veh, LARP1B / RFU, RASA1 / Fold change vs veh, RASA1 / RFU, RB1 / Fold change vs veh, RB1 / RFU, PPFIA1 / Fold change vs veh, PPFIA1 / RFU, MAT2A / Fold change vs veh, MAT2A / RFU, CCT5 / Fold change vs veh, CCT5 / RFU, WDR92 / Fold change vs veh, WDR92 / RFU, CUX1 / Fold change vs veh, CUX1 / RFU, TTC7A / Fold change vs veh, TTC7A / RFU, TMEM135 / Fold change vs veh, TMEM135 / RFU, DEPTOR / Fold change vs veh, DEPTOR / RFU, CPM / Fold change vs veh, CPM / RFU, DNAJB6 / Fold change vs veh, DNAJB6 / RFU, CACNA2D3 / Fold change vs veh, CACNA2D3 / RFU, DTX4 / Fold change vs veh, DTX4 / RFU, TFCP2 / Fold change vs veh, TFCP2 / RFU, GMCL1 /// GMCL1P1 / Fold change vs veh, GMCL1 /// GMCL1P1 / RFU, AEBP2 / Fold change vs veh, AEBP2 / RFU, SNHG1 /// SNORD22 /// SNORD25 /// SNORD26 /// SNORD27 /// SNORD28 /// SNORD29 /// SNORD31 / Fold change vs veh, SNHG1 /// SNORD22 /// SNORD25 /// SNORD26 /// SNORD27 /// SNORD28 /// SNORD29 /// SNORD31 / Fold change (Aza/veh), C12orf56 (ProbeSet 11735607_a_at) / Fold change (ACY-1035/veh), C12orf56 (ProbeSet 11735607_a_at) / Fold change (Aza/veh), FGFR1OP (ProbeSet 11751329_s_at) / Fold change (ACY-1035/veh), FGFR1OP (ProbeSet 11751329_s_at) / Fold change (Aza/veh), VPS36 (ProbeSet 11739960_a_at) / Fold change (ACY-1035/veh), VPS36 (ProbeSet 11739960_a_at) / RFU SYPL1 (11715823_x_at) / Fold change /veh SYPL1 (11715823_x_at) / RFU IGFBP7 (11715501_s_at) / Fold change /veh IGFBP7 (11715501_s_at) / RFU REEP3 (11722064_at) / Fold change /veh REEP3 (11722064_at) / RFU IGLL1 (11728026_x_at) / Fold change /veh IGLL1 (11728026_x_at): dose or concentration left out as unconfirmed
Settings: ProbeSet 11720154_at; LIST B

Nc1ccc(-c2cccs2)cc1NC(=O)c1ccc2c(c1)cc(C1CC1)n2CCN1CCOCC1 [ACY-1035]
RFU, NRIP1: 473.81 RFU

Source: publication PMC5218480 (PLoS ONE, 2017)
